Bounds are passed on as bounds.

For assay [1], the target named is T1, IRAK4 (Homo sapiens, UniProt Q9NWZ3).
T1 sequence (Q9NWZ3 1-460): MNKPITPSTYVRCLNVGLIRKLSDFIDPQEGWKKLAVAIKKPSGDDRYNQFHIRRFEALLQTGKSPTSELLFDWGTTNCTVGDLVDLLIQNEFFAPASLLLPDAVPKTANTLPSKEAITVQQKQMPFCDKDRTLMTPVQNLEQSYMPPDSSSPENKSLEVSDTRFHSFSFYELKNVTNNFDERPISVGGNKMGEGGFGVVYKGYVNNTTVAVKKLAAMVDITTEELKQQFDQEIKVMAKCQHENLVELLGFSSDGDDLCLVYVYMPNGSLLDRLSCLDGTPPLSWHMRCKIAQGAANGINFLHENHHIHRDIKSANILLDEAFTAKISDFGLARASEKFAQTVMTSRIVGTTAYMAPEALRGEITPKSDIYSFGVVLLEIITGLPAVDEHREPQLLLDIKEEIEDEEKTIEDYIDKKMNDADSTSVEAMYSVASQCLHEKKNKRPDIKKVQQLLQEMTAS
The assay can be described thus: WB detection of proteolysis (Western Blot, THP-1 cells). Type of assay: cell-based. Conditions: Western Blot, THP-1 cells, 24 h; for DC50: read-out: DC50; for Dmax: read-out: Dmax. As to the method: The degradation level of IRAK4 in THP-1 cells was detected by Western Blot technology. […] 1000X gradient dilution stock of the compound was prepared, with the highest concentration set at 300 µM. The dilution was carried out using DMSO in a 1:3 dilution factor, yielding a total of 9 concentrations. 1000X gradient dilutions of the compound were added to a 12-well plate, with 1 µL per well. Incubation was performed under conditions of 37°C and 5% CO2 for 24 h, and the cells were collected into 2 mL of centrifuge tubes and centrifuged at 5000 rpm for 5 min, and the supernatant was removed. 100 µL of RIPA lysis buffer (Beyotime, P0013C) was added and mixed uniformly, then the cells were lysed on ice for 10 min, centrifuged at 4°C at 14000 rpm for 10 min, and the supernatant was collected. Protein content was determined with BCA (Solarbio, PC0020-10*50T). 75 µL of the supernatant was taken, and 25 µL of NuPAGE LDS Sample Buffer (4X) (Thermo B0007) was added to each tube (5% β-mercaptoethanol was added before use) to prepare samples, and the samples were boiled in a metal bath at 100°C for 5 min. […] 1x NuPAGE™ MOPS SDS electrophoresis buffer (20X) (Invitrogen, NP0001) was prepared, and the electrophoresis instrument was set to a constant current of 300 mA for 100 min, and the protein was transferred to a PVDF membrane (Millipore, IPVH00010). […] The membrane was washed three times with 1x TBST (Elabscience E-BC-R335) the next day, each time for 5 min. […] The membrane was washed three times with TBST, each time for 5 min. The Odyssey imaging system Li-cor Odyssey CLx was used to detect signals and analyze data. GraphPad (Prism 9.3) software was used to perform analysis for data, and non-linear fitting (non-liner inhibitor (Bell-shaped)) and four parameters (4 parameter) were used, and the parameters was as follows: Span1 = Plateau1−Dip [formula] Span2 = Plateau2−Dip [formula] Section1 = Span1/(1+10^(∧)((LogEC50_1−X)*nH1)) [formula] Section2 = Span2/(1+10^(∧)((X−LogEC50_2)*nH2)) [formula]
The equation was as follows: Y=Dip+Section1+Section2.

In assay [2] the target is T1, IRAK4. The assay can be described thus: Hibit fluorescence detection of proteolysis (IRAK4-HiBiT in HEK293T cells). It is filed as cell-based. Also noted: host or cells: HEK293T (ATCC). Conditions: for Dmax: HEK-293T; for DC50: IRAK4-HiBiT, HEK293T cells, 24 h. The procedure, abridged:
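Degradation read-out: luminescence from lytic HiBiT detection (15 min, room temperature) after 24 h compound exposure (37 °C, 5% CO2) of HEK293T cells transiently expressing IRAK4 fused to a HiBiT tag. Data fitted to a bell-shaped four-parameter model giving two EC50 values.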
(The HiBiT peptide binds its large partner to form an active luciferase.)

For the compound `Cn1c(=O)n(C2CCC(=O)NC2=O)c2cccc(N3CCC(N4CCN(C[C@H]5CC[C@H](n6cc(-n7cc(-c8cnn9ccc(N%10CCOC[C@@H]%10CO)nc89)nn7)c(C(F)F)n6)CC5)CC4)CC3)c21` (stereo partly drawn) [Example 173], in assay [1], the DC50 was less than 10 nM and the Dmax is greater than 70%.

As for `Cn1nc(N2CCC(=O)NC2=O)c2ccc(N3CCC(N4CCN(C[C@H]5CC[C@H](n6cc(-n7cc(-c8cnn9ccc(N[C@@H]%10CCCC[C@@H]%10O)nc89)nn7)c(C(F)F)n6)CC5)CC4)CC3)cc21` [Example 161], in assay [1], the DC50 was greater than 30 nM and the Dmax was less than 60%.

With `Cn1c(=O)n(C2CCC(=O)NC2=O)c2cccc(N3CCC4(CCN(C[C@H]5CC[C@H](n6cc(-n7cc(-c8cnn9ccc(N%10CCOC[C@@H]%10CO)nc89)nn7)c(C(F)F)n6)CC5)CC4)CC3)c21` (stereo partly drawn) [Example 174], in assay [1], the DC50 was less than 10 nM and the Dmax is greater than 70%.

`C[C@H]1CN(c2cccc3c2n(C)c(=O)n3C2CCC(=O)NC2=O)CCN1C[C@H]1CC[C@H](n2cc(-n3cc(-c4cnn5ccc(N6CCC[C@H](O)C6)nc45)nn3)c(C(F)F)n2)CC1` (stereo partly drawn) [Example 287, 3-(4-((S)-4-(((1R,4S)-4-(3-(difluoromethyl)-4-(4-(5-((S)-3-hydroxypiperidin-1-yl)pyrazolo[1,5-a]pyrimidin-3-yl)-1H-1,2,3-triazol-1-yl)-1H-pyrazol-1-yl)cyclohexyl)methyl)-3-methylpiperazin-1-yl)-3-methyl-2-oxo-2,3-dihydro-1H-benzo[d]imidazol-1-yl)piperidine-2,6-dione]: in assay [1], the DC50 is less than 10 nM and the Dmax was greater than 70%.

Regarding `Cn1c(=O)n(C2CCC(=O)NC2=O)c2cccc(N3CCC(N4CCN(C[C@H]5CC[C@H](n6cc(-n7cc(-c8cnn9ccc(N%10CCC[C@H](O)C%10)nc89)nn7)c(C(F)F)n6)CC5)CC4)[C@@H](F)C3)c21` (stereo partly drawn) [Example 297, 3-(4-((3S)-4-(4-(((1R,4S)-4-(3-(difluoromethyl)-4-(4-(5-((S)-3-hydroxypiperidin-1-yl)pyrazolo[1,5-a]pyrimidin-3-yl)-1H-1,2,3-triazol-1-yl)-1H-pyrazol-1-yl)cyclohexyl)methyl)piperazin-1-yl)-3-fluoropiperidin-1-yl)-3-methyl-2-oxo-2,3-dihydro-1H-benzo[d]imidazol-1-yl)piperidine-2,6-dione], in assay [1], the DC50 is less than 10 nM and the Dmax was greater than 70%.

Regarding `C[C@H]1CC2(CCN(c3cccc4c3n(C)c(=O)n4C3CCC(=O)NC3=O)CC2)CN1C[C@H]1CC[C@H](n2cc(-n3cc(-c4cnn5ccc(N6CCC[C@H](O)C6)nc45)nn3)c(C(F)F)n2)CC1` (stereo partly drawn) [Example 295, 3-(4-((S)-2-(((1R,4S)-4-(3-(difluoromethyl)-4-(4-(5-((S)-3-hydroxypiperidin-1-yl)pyrazolo[1,5-a]pyrimidin-3-yl)-1H-1,2,3-triazol-1-yl)-1H-pyrazol-1-yl)cyclohexyl)methyl)-3-methyl-2,8-diazaspiro[4.5]dec-8-yl)-3-methyl-2-oxo-2,3-dihydro-1H-benzo[d]imidazol-1-yl)piperidine-2,6-dione], in assay [1], the DC50 was greater than 30 nM and the Dmax was greater than 70%.

As for `Cn1c(=O)n(C2CCC(=O)NC2=O)c2cccc(N3CCC(N4CCN(C[C@H]5CC[C@H](n6cc(-n7cc(-c8cnn9ccc(N%10CCC[C@@H](O)C%10)nc89)nn7)c(C(F)F)n6)CC5)CC4)CC3)c21` (stereo partly drawn) [Example 247], in assay [1], the DC50 was less than 10 nM and the Dmax was greater than 70%.

Take `Cn1c(=O)n(C2CCC(=O)NC2=O)c2cccc(N3CCC(N4CCN(C[C@H]5CC[C@H](n6cc(-n7cc(-c8cnn9ccc(NCC%10CC%10)nc89)nn7)c(C(F)F)n6)CC5)CC4)CC3)c21` (stereo partly drawn) [Example 114]: in assay [2], the Dmax is greater than 80% and the DC50 is less than 0.5 nM.

As for `Cn1c(=O)n(C2CCC(=O)NC2=O)c2cccc(N3CCN(C4CN(C[C@H]5CC[C@H](n6cc(-n7cc(-c8ccc9cc(C(N)=O)cnn89)nn7)c(C(F)F)n6)CC5)C4)CC3)c21` (stereo partly drawn) [Example 67], in assay [2], the Dmax was greater than 80% and the DC50 was less than 0.5 nM.

With `CN1CCN(c2ccn3ncc(-c4cn(-c5cn([C@H]6CC[C@H](CN7CCN(c8cccc9c8n(C)c(=O)n9C8CCC(=O)NC8=O)CC7)CC6)nc5C(F)F)nn4)c3n2)CC1` (stereo partly drawn) [Compound 227], the Dmax in assay [2] lay within 60 to 70%. Besides, the DC50 in assay [2] (read-out: DC50) lay in the range of 1 to 5 nM.

Consider `Cn1c(=O)n(C2CCC(=O)NC2=O)c2cccc(CN3CCN(C[C@H]4CC[C@H](n5cc(-n6cc(-c7ccc8cc(C(N)=O)cnn78)nn6)c(C(F)F)n5)CC4)CC3)c21` (stereo partly drawn) [Example 68], for which, in assay [2], the Dmax is greater than 80% and the DC50 is less than 0.5 nM.

In assay [2], `CN(C[C@H]1CC[C@H](n2cc(-n3cc(-c4cnn5ccc(N6CCOCC6)nc45)nn3)c(C(F)F)n2)CC1)C1CCC(Nc2cccc3c2n(C)c(=O)n3C2CCC(=O)NC2=O)CC1` (stereo partly drawn) [Example 20, 3-(4-((4-((((1r,4r)-4-(3-(difluoromethyl)-4-(4-(5-morpholinopyrazolo[1,5-a]pyrimidin-3-yl)-1H-1,2,3-triazol-1-yl)-1H-pyrazol-1-yl)cyclohexyl)methyl)(methyl)amino)cyclohexyl)amino)-3-methyl-2-oxo-2,3-dihydro-1H-benzo[d]imidazol-1-yl)piperidine-2,6-dione] gave a Dmax greater than 80% and a DC50 of less than 0.5 nM.

In assay [2], `Cn1c(=O)n(C2CCC(=O)NC2=O)c2cccc(N3CCN(C4CCN(C[C@H]5CC[C@H](n6cc(-n7cc(-c8ccc9cc(C(N)=O)cnn89)nn7)c(C(F)F)n6)CC5)CC4)CC3)c21` (stereo partly drawn) [Example 71] displayed a Dmax greater than 80% and a DC50 of less than 0.5 nM.

In assay [2], `C[C@H]1CN(c2ccn3ncc(-c4cn(-c5cn([C@H]6CC[C@H](CN7CCC8(CC7)CCN(c7cccc9c7n(C)c(=O)n9C7CCC(=O)NC7=O)C8)CC6)nc5C(F)F)nn4)c3n2)CCO1` (stereo partly drawn) [Compound 203] showed a Dmax greater than 80%. Also, the DC50 in assay [2] (read-out: DC50) is less than 0.5 nM.

Take `Cn1c(=O)n(C2CCC(=O)NC2=O)c2cccc(N3CCC4(CC3)CN(C[C@H]3CC[C@H](n5cc(-n6cc(-c7ccc8cc(C(N)=O)cnn78)nn6)c(C(F)F)n5)CC3)CCO4)c21` (stereo partly drawn) [Example 89, 7-(1-(3-(difluoromethyl)-1-((1r,4r)-4-((9-(1-(2,6-dioxopiperidin-3-yl)-3-methyl-2-oxo-2,3-dihydro-1H-benzo[d]imidazol-4-yl)-1-oxa-4,9-diazaspiro[5.5]undecan-4-yl)methyl)cyclohexyl)-1H-pyrazol-4-yl)-1H-1,2,3-triazol-4-yl)pyrrolo[1,2-b]pyridazine-3-carboxamide]: in assay [2], the Dmax is greater than 80% and the DC50 was 0.5 to 1 nM.

Regarding `Cn1c(=O)n(C2CCC(=O)NC2=O)c2cccc(CNC3CC4(CCN(C[C@H]5CC[C@H](n6cc(-n7cc(-c8cnn9ccc(N%10CCOCC%10)nc89)nn7)c(C(F)F)n6)CC5)CC4)C3)c21` (stereo partly drawn) [Example 10], in assay [2], the Dmax was greater than 80% and the DC50 is less than 0.5 nM.

Take `Cl.Cn1c(=O)n(C2CCC(=O)NC2=O)c2cccc(N3CCN(C4CCN(C[C@H]5CC[C@H](n6cc(-n7cc(-c8cnn9ccc(N%10CCNCC%10)nc89)nn7)c(C(F)F)n6)CC5)CC4)CC3)c21` (stereo partly drawn) [Example 131, 3-(4-(4-(1-(1r,4r)-4-(3-difluoromethyl)-4-(4-(5-(piperazin-1-yl)pyrazolo[1,5-a]pyrimidin-3-yl)-1H-1,2,3-triazol-1-yl)-1H-pyrazol-1-yl)cyclohexyl)methyl)piperidin-4-yl)piperazin-1-yl)-3-methyl-2-oxo-2,3-dihydro-1H-benzoimidazol-1-yl)piperidine-2,6-dione hydrochloride]: the DC50 in assay [2] (read-out: DC50) lay in the range of 0.5 to 1 nM.

These data come from patent EP4759807A1, “PROTEOLYSIS TARGETING CHIMERA COMPOUND FOR DEGRADING IRAK4 AND USE THEREOF” (Shenzhen Zhongge Biological Technology Co., Ltd., priority 2023, dated 2025).
